Results taken from publication PMC4113265 (Journal of Natural Products, 2014).

Legend:
MIA PaCa-2 cells = test: MTT antiproliferation/cytotoxicity assay; type: cell-based, human; conditions: MIA PaCa-2, MTT, concentration-response curves (Figure 2A)
[1] = cited from earlier work
[2] = freshly prepared rat serum; cited from earlier work

Substance | potency relative to 1 in MIA PaCa-2 cells (MIA PaCa-2 cells) | half-life (t1/2) in whole blood [1] | half-life (t1/2) in serum [2]
apicidin | significantly less active than 1 |  | 
chlamydocin |  | 0.68 to 3.6 min | 8.7 min
trapoxin A | comparable potency to 1 |  | 
